MIC data for nine molecules are collected here from DBAASP.

Some test systems named below: Bacillus subtilis 168 HT; Salmonella sp.; Yersinia enterocolitica; Escherichia coli; Leuconostoc lactis; Streptococcus uberis.
Common to all, as to experiment: ≥ marks a high value that may be exact or a test limit, other limits are often not marked, values filed in µg/mL are converted to µM
Experiment [1] deals with Staphylococcus haemolyticus 527.
The test system of experiment [2] is Escherichia coli K12 MG1655.
For experiment [3], the system named is Staphylococcus aureus ST88.
For experiment [4], the system named is Candida albicans ATCC 10231.
The subject of experiment [5] is Pseudomonas aeruginosa ATCC 9027.
In experiment [6] the test system is Staphylococcus aureus ATCC 25923.
The subject of experiment [7] is Escherichia coli ATCC 25922.
The test system of experiment [8] is Enterococcus faecalis PCM 2673.
For experiment [9], the system named is Escherichia coli KCTC 1682.
The test system of experiment [10] is Pseudomonas aeruginosa CCARM 2095.
Experiment [11] relates to Staphylococcus aureus KCTC 1621.
In experiment [12] the test system is Bacillus subtilis KCTC 3068.
Experiment [13] has as its system Escherichia coli CCARM 1229.
Experiment [14] relates to Acinetobacter baumannii CCARM 12035.
The test system of experiment [15] is Salmonella typhimurium KCTC 1926.
The test system of experiment [16] is Salmonella typhimurium CCARM 8009.
Experiment [17] has as its system Enterococcus faecalis KCTC 2011.
The test system of experiment [18] is Pseudomonas aeruginosa KCTC 1637.
Experiment [19] concerns Batrachochytrium dendrobatidis.
The subject of experiment [20] is Staphylococcus aureus ATCC 43300.
In experiment [21] the test system is Salmonella enterica subsp. enterica serovar Enteritidis.
For experiment [22], the system named is Staphylococcus aureus ATCC 29213.
Experiment [23] has as its system Micrococcus luteus ATCC 9341.
The subject of experiment [24] is Staphylococcus epidermidis ATCC 14990.

Each structure is given as a SMILES string. Converted amounts (≈) assume the structure as drawn.

Turning to `CC[C@H](C)[C@H](NC(=O)[C@H](CC(C)C)NC(=O)[C@@H](N)C(C)C)C(=O)N[C@@H](CCCN=C(N)N)C(=O)NCC(=O)N[C@@H](CC(C)C)C(=O)N[C@H](C(=O)N[C@@H](Cc1cnc[nH]1)C(=O)N[C@@H](CCSC)C(=O)N[C@@H](CC(C)C)C(=O)N[C@@H](CCCN=C(N)N)C(=O)NCC(=O)NCC(=O)O)[C@@H](C)CC` [VLIRGLIHMLRGG], the MIC was not below 100 µM in [1], not below 100 µM in experiment [2], not below 100 µM in experiment [3] and 22.4 µM (≈ 32.1 µg/mL) in the experiment with Bacillus subtilis 168 HT.

For `CC[C@H](C)[C@H](NC(=O)[C@H](C)NC(=O)[C@H](Cc1ccccc1)NC(=O)[C@H](CC(C)C)NC(=O)CN)C(=O)N[C@H](C(=O)N[C@@H](CCCCN)C(=O)N[C@@H](CCCCN)C(=O)N[C@H](C(=O)N[C@@H](C)C(=O)N[C@@H](CCC(=O)O)C(=O)N[C@@H](CO)C(=O)N[C@@H](Cc1ccccc1)C(N)=O)[C@@H](C)CC)[C@@H](C)CC` [GLFAIIKKIAESF], the MIC worked out at 44.5 µM (≈ 64 µg/mL) in experiment [4]; 44.5 µM (≈ 64 µg/mL) in experiment [5]; 11.1 µM (≈ 16 µg/mL) in experiment [6]; 5.57 µM (≈ 7.99 µg/mL) in experiment [7]; 22.3 µM (≈ 32 µg/mL) in [8].

With `CC[C@H](C)[C@H](NC(=O)[C@H](Cc1cnc[nH]1)NC(=O)[C@@H](NC(=O)[C@H](CC(C)C)NC(=O)[C@@H](NC(=O)[C@@H](NC(=O)[C@H](CCCN=C(N)N)NC(=O)[C@H](CC(C)C)NC(=O)[C@H](Cc1c[nH]c2ccccc12)NC(=O)[C@H](CO)NC(=O)[C@H](CCCCN)NC(=O)[C@@H](NC(=O)[C@H](CC(C)C)NC(=O)[C@H](Cc1cnc[nH]1)NC(=O)[C@@H](NC(=O)[C@@H](NC(=O)[C@@H](NC(=O)[C@H](Cc1cnc[nH]1)NC(=O)[C@H](CC(C)C)NC(=O)[C@H](CCC(N)=O)NC(=O)[C@H](CCCCN)NC(=O)[C@H](Cc1ccccc1)NC(=O)[C@H](CO)NC(=O)[C@H](CCCCN)NC(=O)CNC(=O)[C@H](CCCCN)NC(=O)[C@@H](N)CCCCN)[C@@H](C)CC)[C@@H](C)CC)C(C)C)C(C)C)[C@@H](C)O)[C@@H](C)CC)[C@@H](C)O)C(=O)O` [KKGKSFKQLHIIVHLVKSWLRTILTHI], the MIC worked out at 10 µM (≈ 32.2 µg/mL) in experiment [1], 10 µM (≈ 32.2 µg/mL) in experiment [2], 19.9 µM (≈ 64.2 µg/mL) in experiment [3] and 10 µM (≈ 32.2 µg/mL) in the experiment on Bacillus subtilis 168 HT.

Turning to `CC[C@H](C)[C@H](NC(=O)CNC(=O)[C@H](CC(=O)O)NC(=O)[C@H](CCCN=C(N)N)NC(=O)[C@@H](NC(=O)[C@H](CC(N)=O)NC(=O)[C@H](CCCN=C(N)N)NC(=O)CNC(=O)[C@@H](NC(=O)[C@H](CCCCN)NC(=O)[C@H](CCC(=O)O)NC(=O)[C@@H](NC(=O)[C@H](CCCCN)NC(=O)[C@H](CCCCN)NC(=O)[C@H](Cc1ccccc1)NC(=O)[C@@H](NC(=O)[C@H](CCCCN)NC(=O)[C@H](C)NC(=O)[C@@H](N)CCCN=C(N)N)[C@@H](C)CC)[C@@H](C)CC)C(C)C)C(C)C)C(=O)N[C@H](C(=O)N[C@@H](CCCCN)C(=O)N[C@@H](C)C(N)=O)[C@@H](C)CC` [RAKIFKKIEKVGRNVRDGIIKA], the MIC in experiment [9] is 2 µM (≈ 5.08 µg/mL); in experiment [10], 4 µM (≈ 10.2 µg/mL); in experiment [11], not below 32 µM; in experiment [12] it was not below 32 µM; in experiment [13], 2 µM (≈ 5.08 µg/mL); in experiment [14] it was 8 µM (≈ 20.3 µg/mL). Further, the MIC in experiment [15] was 4 µM (≈ 10.2 µg/mL); in experiment [16] it was 2 µM (≈ 5.08 µg/mL); in [17], not below 128 µM; in experiment [18] it was 4 µM (≈ 10.2 µg/mL).

For the molecule `CC[C@H](C)[C@H](NC(=O)CNC(=O)[C@H](CC(=O)O)NC(=O)[C@H](CCCN=C(N)N)NC(=O)[C@@H](NC(=O)[C@H](CC(N)=O)NC(=O)[C@H](CCCN=C(N)N)NC(=O)CNC(=O)[C@@H](NC(=O)[C@H](CCCCN)NC(=O)[C@H](CCC(=O)O)NC(=O)[C@@H](NC(=O)[C@H](CCCCN)NC(=O)[C@H](CCCCN)NC(=O)[C@H](Cc1c[nH]c2ccccc12)NC(=O)[C@@H](NC(=O)[C@H](CCCCN)NC(=O)[C@H](Cc1ccccc1)NC(=O)[C@@H](N)CCCN=C(N)N)[C@@H](C)CC)[C@@H](C)CC)C(C)C)C(C)C)C(=O)N[C@H](C(=O)N[C@@H](CCCCN)C(=O)N[C@@H](C)C(N)=O)[C@@H](C)CC` [RFKIWKKIEKVGRNVRDGIIKA], the MIC in experiment [9] was determined as 1 µM (≈ 2.65 µg/mL); in experiment [10] it was 2 µM (≈ 5.31 µg/mL); in experiment [11] it was 16 µM (≈ 42.5 µg/mL); in [12] it was 8 µM (≈ 21.2 µg/mL); in [13], 2 µM (≈ 5.31 µg/mL); in [14] it was 4 µM (≈ 10.6 µg/mL). Besides, the MIC in experiment [15] is 2 µM (≈ 5.31 µg/mL); in experiment [16], 2 µM (≈ 5.31 µg/mL); in experiment [17], not below 64 µM; in [18], 2 µM (≈ 5.31 µg/mL).

In experiment [19], `CC[C@H](C)[C@H](NC(=O)CNC(=O)[C@H](CO)NC(=O)[C@H](CC(C)C)NC(=O)[C@@H](NC(=O)[C@H](CCCN=C(N)N)NC(=O)CNC(=O)[C@@H](NC(=O)[C@H](CC(C)C)NC(=O)[C@@H]1CCCN1C(=O)[C@H](CC(C)C)NC(=O)[C@@H](N)Cc1c[nH]c2ccccc12)[C@@H](C)CC)C(C)C)C(=O)N[C@@H](CC(C)C)C(N)=O` [WLPLIGRVLSGIL] returned a minimal inhibitory concentration (MIC) of 25.1 µM (≈ 36 µg/mL).

`CC[C@H](C)[C@H](NC(=O)[C@H](CCCCN)NC(=O)[C@@H](NC(=O)[C@H](CCC(N)=O)NC(=O)[C@@H](N)CCCN=C(N)N)[C@@H](C)CC)C(=O)N[C@@H](Cc1c[nH]c2ccccc12)C(=O)N[C@@H](CCCN=C(N)N)C(=O)N[C@@H](CCCN=C(N)N)C(=O)N[C@@H](CCSC)C(=O)N[C@@H](CCCCN)C(=O)N[C@@H](Cc1c[nH]c2ccccc12)C(=O)N[C@@H](CCCCN)C(=O)N[C@@H](CCCCN)C(N)=O` [RQIKIWRRMKWKK]: the MIC turned out to be 2.69 µM (≈ 5 µg/mL) against Salmonella sp.; 13.5 µM (≈ 25 µg/mL) in experiment [20]; 6.73 µM (≈ 12.5 µg/mL) in experiment [21]; 3.37 µM (≈ 6.25 µg/mL) against Yersinia enterocolitica; 3.37 µM (≈ 6.25 µg/mL) in [7]; 3.01 µM (≈ 5.59 µg/mL) with Escherichia coli. This molecule also came in with an MIC in experiment [22] of 26.9 µM (≈ 50 µg/mL).

Turning to `CC[C@H](C)[C@H](NC(=O)[C@H](CC(=O)O)NC(=O)[C@H](Cc1ccccc1)NC(=O)[C@H](CC(C)C)NC(=O)CN)C(=O)N[C@H](C(=O)N[C@@H](CCCCN)C(=O)N[C@@H](CCCCN)C(=O)N[C@@H](C)C(=O)N[C@@H](C)C(=O)N[C@@H](CCC(=O)O)C(=O)N[C@@H](CO)C(=O)N[C@@H](Cc1ccccc1)C(N)=O)[C@@H](C)CC` [GLFDIIKKAAESF], the MIC in experiment [4] was 356 µM (≈ 512 µg/mL); in experiment [5] it was more than 356 µM; in experiment [6] it was more than 356 µM; in experiment [7], 356 µM (≈ 512 µg/mL); in experiment [8], not below 89 µM.

Regarding `CC[C@H](C)[C@H](NC(=O)[C@H](CC(C)C)NC(=O)[C@H](Cc1cnc[nH]1)NC(=O)CNC(=O)[C@@H](NC(=O)[C@@H](NC(=O)CNC(=O)[C@@H](NC(=O)[C@@H](NC(=O)[C@H](CCCCN)NC(=O)[C@@H]1CCCN1C(=O)[C@H](CC(C)C)NC(=O)[C@H](Cc1ccccc1)NC(=O)[C@H](CO)NC(=O)[C@H](CC(C)C)NC(=O)[C@H](CC(C)C)NC(=O)CN)C(C)C)[C@@H](C)CC)C(C)C)[C@@H](C)CC)C(=O)N[C@@H](Cc1cnc[nH]1)C(=O)N1CCC[C@H]1C(=O)N1CCC[C@H]1C(=O)N[C@@H](CO)C(=O)O` [GLLSFLPKVIGVIGHLIHPPS], the MIC against Leuconostoc lactis is 12 µM (≈ 26.3 µg/mL); in experiment [23], not below 100 µM; with Streptococcus uberis it was not below 50 µM; in [24] it was not below 100 µM.

As a reminder, the MIC is the smallest concentration in the dilution series that meets the test's criterion for growth inhibition. The low end stands for inhibition by little substance, the high end for a need for much substance.
